Counter-ions that a name gives are not always drawn.
How the values were obtained:
[1] = molecular target: T1, Furin (108-574-Tev-Flag-His) enzyme (Homo sapiens, UniProt P09958); test: Furin enzyme assay; type: biochemical; settings: for IC50: read-out: furin enzyme pIC50 (converted)
T1 construct: Furin (108-574-Tev-Flag-His) enzyme was expressed and purified from CHO cells; TEV cleavage site (C); FLAG (C); His (C); made in house; host or cells: CHO cells
Description: Reactions were performed in black 384-well polystyrene low volume plates (Greiner). Furin (108-574-Tev-Flag-His) enzyme was expressed and purified from CHO cells. Compounds of the invention were dissolved in DMSO (1.0 mM) and serially diluted 1 to 3 with DMSO through eleven dilutions to provide a final compound concentration range from 0.00017 to 10 μM. 0.05 μL of each concentration was transferred to the corresponding well of an assay plate, and then 5 μL of 40 pM furin enzyme in assay buffer (100 mM HEPES pH7.5, 1 mM CaCl2 and 0.005% Triton X-100) was added using a Multidrop Combi (Thermo) to the compound plates, and mixed by inversion. […] The plates were centrifuged at 500×g for 1 minute and incubated at room temperature for two hours. Enzyme inhibition is then quantified using an Envision instrument (PerkinElmer).
Data were analyzed using AbaseXE 7.3, utilizing a four-parameter curve fit equation. The following values were used to define limits and/or constraints for each of the four parameters: • Minimum—limit −10 to 10 • Maximum—90 to 110 • Slope—limit 0.5 to 2.0 • pXC50 confidence interval—10
Raw counts obtained from the respective plate reader (Perkin Elmer) were captured for data analysis. Curves were generated using the equation: Y=A+[(B−A)/(1+(10^C/x)^D)] • where: A=minimum response • B=maximum response • C=log 10*XC50 • D=slope factor • x=log 10 compound concentration [M]
The results were recorded as pXC50 values (−C in the above equation)

[2] = molecular target: T2, furin (endogenous protease) in U20S cells (Homo sapiens, UniProt P09958); test: Furin cell-based assay (image-based, Golgi-targeted GFP with BMP10 furin/PCSK cleavage site); settings: 24-hour incubation, read-out: furin golgi cell pXC50 (converted);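 further: Read-out is mean GFP fluorescence of Golgi puncta per cell by high-content imaging, retained when furin inhibited, over an eleven-point 0.00017–10 µM series, four-parameter fit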
T2 construct: the endogenous protease cleaves GFP; endogenous in cells; host or cells: U2OS cells transduced with a BacMam reporter
T2 sequence (P09958 108-794): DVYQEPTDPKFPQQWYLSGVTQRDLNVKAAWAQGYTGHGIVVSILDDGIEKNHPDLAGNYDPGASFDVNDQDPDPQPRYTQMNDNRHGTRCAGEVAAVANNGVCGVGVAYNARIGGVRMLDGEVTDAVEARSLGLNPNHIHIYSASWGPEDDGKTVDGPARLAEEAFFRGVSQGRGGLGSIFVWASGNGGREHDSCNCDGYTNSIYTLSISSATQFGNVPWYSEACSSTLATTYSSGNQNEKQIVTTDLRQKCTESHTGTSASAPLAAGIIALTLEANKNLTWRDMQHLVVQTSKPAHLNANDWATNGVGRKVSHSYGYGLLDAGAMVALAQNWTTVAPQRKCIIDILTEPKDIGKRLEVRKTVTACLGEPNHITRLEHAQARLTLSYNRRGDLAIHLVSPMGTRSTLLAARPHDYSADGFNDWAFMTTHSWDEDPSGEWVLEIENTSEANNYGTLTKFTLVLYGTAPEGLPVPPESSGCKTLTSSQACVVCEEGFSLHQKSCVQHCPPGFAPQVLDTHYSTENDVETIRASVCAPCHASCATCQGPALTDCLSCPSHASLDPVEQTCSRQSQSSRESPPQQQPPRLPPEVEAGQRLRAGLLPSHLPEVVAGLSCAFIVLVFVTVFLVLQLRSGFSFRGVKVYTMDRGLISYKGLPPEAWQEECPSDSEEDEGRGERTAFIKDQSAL

T1 sequence (P09958 108-574): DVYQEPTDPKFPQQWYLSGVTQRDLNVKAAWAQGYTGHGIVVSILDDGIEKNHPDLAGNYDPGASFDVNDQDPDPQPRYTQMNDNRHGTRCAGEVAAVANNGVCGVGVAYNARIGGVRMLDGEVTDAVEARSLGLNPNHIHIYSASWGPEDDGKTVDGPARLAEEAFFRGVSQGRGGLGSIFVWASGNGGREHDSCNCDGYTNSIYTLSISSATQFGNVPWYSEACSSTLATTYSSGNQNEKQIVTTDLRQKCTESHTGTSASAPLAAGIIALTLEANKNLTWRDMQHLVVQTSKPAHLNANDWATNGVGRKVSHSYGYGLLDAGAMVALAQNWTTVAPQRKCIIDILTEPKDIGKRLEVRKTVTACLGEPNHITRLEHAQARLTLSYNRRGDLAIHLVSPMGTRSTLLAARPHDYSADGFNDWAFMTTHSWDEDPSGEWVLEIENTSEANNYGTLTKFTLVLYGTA

Structure (SMILES) | furin enzyme pIC50 [1] | EC50 [2] | IC50 [1]
CC(=O)NCC1CCN(Cc2cc(Oc3ccc(N4CC[C@@H](N)[C@@H](F)C4)nc3)nc(-c3cc(Cl)cc(Cl)c3)c2)CC1 (relative stereo) [Example 182] | 9.3 | 1.58 nM | –
CC(=O)NCC1CCN(Cc2cc(Oc3ccc(N4C[C@H](CN)[C@@H](O)C4)nc3)nc(-c3cc(Cl)cc(Cl)c3)c2)CC1 (relative stereo) [Example 184, N-((1-((2-((6-(trans-3-(Aminomethyl)-4-hydroxypyrrolidin-1-yl)pyridin-3-yl)oxy)-6-(3,5-dichlorophenyl)pyridin-4-yl)methyl)piperidin-4-yl)methyl)acetamide] | – | 15.8 nM | 0.251 nM
CNC(=O)CN1CCN(Cc2cc(Oc3ccc(N4CCNCC4)nc3)nc(-c3cc(Cl)cc(Cl)c3)c2)CC1 [Example 1, 2-(4-((2-(3,5-Dichlorophenyl)-6-((6-(piperazin-1-yl)pyridin-3-yl)oxy)pyridin-4-yl)methyl)piperazin-1-yl)-N-methylacetamide, 5 hydrochloride] | 8.3 | 1.58 nM | –
CC(=O)NCC1(O)CCN(Cc2cc(Oc3ccc(N4CCNCC4)nc3)nc(-c3cc(Cl)cc(Cl)c3)c2)CC1 [Example 2, N-((1-((2-(3,5-Dichlorophenyl)-6-((6-(piperazin-1-yl)pyridine-3-yl)oxy)pyridin-4-yl)methyl)-4-hydroxypiperidin-4-yl)methyl)acetamide] | 8.8 | 39.8 nM | –
O=C(O)CCC1CCN(Cc2cc(Oc3ccc(N4CCNCC4)nc3)nc(-c3cc(Cl)cc(Cl)c3)c2)CC1 [Example 3, 3-(1-((2-(3,5-Dichlorophenyl)-6-((6-(piperazin-1-yl)pyridin-3-yl)oxy)pyridin-4-yl)methyl)piperidin-4-yl)propanoic acid, 4 hydrochloride] | 8.9 | 50.1 nM | –
O=C(O)CC1CCN(Cc2cc(Oc3ccc(N4CCNCC4)nc3)nc(-c3cc(Cl)cc(Cl)c3)c2)CC1 [Example 4, 2-(1-((2-(3,5-Dichlorophenyl)-6-((6-(piperazin-1-yl)pyridin-3-yl)oxy)pyridin-4-yl)methyl)piperidin-4-yl)acetic acid, 4 hydrochloride] | 8.7 | 31.6 nM | –
CNC(=O)NCC1(O)CCN(Cc2cc(Oc3ccc(N4CCNCC4)nc3)nc(-c3cc(Cl)cc(Cl)c3)c2)CC1 [Example 5, 1-((1-((2-(3,5-Dichlorophenyl)-6-((6-(piperazin-1-yl)pyridin-3-yl)oxy)pyridin-4-yl)methyl)-4-hydroxypiperidin-4-yl)methyl)-3-methylurea, 4 hydrochloride] | 9.1 | 63.1 nM | –
COC(=O)NCC1(O)CCN(Cc2cc(Oc3ccc(N4CCNCC4)nc3)nc(-c3cc(Cl)cc(Cl)c3)c2)CC1 [Example 6, Methyl ((1-((2-(3,5-dichlorophenyl)-6-((6-(piperazin-1-yl)pyridin-3-yl)oxy)pyridin-4-yl)methyl)-4-hydroxypiperidin-4-yl)methyl)carbamate, 4 hydrochloride] | 8.5 | 7.94 nM | –
O=S(=O)(O)CCC1CCN(Cc2cc(Oc3ccc(N4CCNCC4)nc3)nc(-c3cc(Cl)cc(Cl)c3)c2)CC1 [Example 7, 2-(1-((2-(3,5-Dichlorophenyl)-6-((6-(piperazin-1-yl)pyridin-3-yl)oxy)pyridin-4-yl)methyl)piperidin-4-yl)ethanesulfonic acid, 4 hydrochloride] | 9.2 | 79.4 nM | –
O=S(=O)(O)CC1CCN(Cc2cc(Oc3ccc(N4CCNCC4)nc3)nc(-c3cc(Cl)cc(Cl)c3)c2)CC1 [Example 8, (1-((2-(3,5-Dichlorophenyl)-6-((6-(piperazin-1-yl)pyridin-3-yl)oxy)pyridin-4-yl)methyl)piperidin-4-yl)methanesulfonic acid, 4 hydrochloride] | 8.9 | 200 nM | –
CC(=O)NCC1CCN(Cc2cc(Oc3ccc(N4CCNCC4)nc3)nc(-c3cc(Cl)cc(Cl)c3)c2)CC1 [Example 9, N-((1-((2-(3,5-Dichlorophenyl)-6-((6-(piperazin-1-yl)pyridin-3-yl)oxy)pyridin-4-yl)methyl)piperidin-4-yl)methyl)acetamide, 4 hydrochloride] | 9.2 | 7.94 nM | –
CC(=O)NCC1CCN(Cc2cc(Oc3ccc(N4CCN(C(C)CCS(C)(=O)=O)CC4)nc3)nc(-c3cc(Cl)cc(Cl)c3)c2)CC1 (stereo not drawn) [Example 16] | 9 | 1.26 nM | –
CC(=O)NCC1CCN(Cc2cc(Oc3ncc(N)cn3)cc(-c3cc(Cl)cc(Cl)c3)c2)CC1 [Example 43, N-((1-((5-((5-aminopyrimidin-2-yl)oxy)-3′,5′-dichloro-[1,1′-biphenyl]-3-yl)methyl)piperidin-4-yl)methyl)acetamide] | 6 | – | –
C[C@H](CC1CCN(Cc2cc(Oc3ccc(N4CCN(C)CC4)nn3)nc(-c3cc(Cl)cc(Cl)c3)c2)CC1)C(=O)O [Example 364, (R)-3-(1-((2-(3,5-dichlorophenyl)-6-((6-(4-methylpiperazin-1-yl)pyridazin-3-yl)oxy)pyridin-4-yl)methyl)piperidin-4-yl)-2-methylpropanoic acid] | – | 31.6 nM | –
CN1CCN(c2cnc(Oc3nc(-c4cc(Cl)cc(Cl)c4)cc(CN4CCC(CC(=O)O)CC4)c3F)cn2)CC1 [Example 390, 2-(1-((6-(3,5-Dichlorophenyl)-3-fluoro-2-((5-(4-methylpiperazin-1-yl)pyrazin-2-yl)oxy)pyridin-4-yl)methyl)piperidin-4-yl)acetic acid] | 8.3 | – | –

Further lines, results first:

furin enzyme pIC50 [1] | EC50 [2] | IC50 [1] | Structure (SMILES)
9.1 | 7.94 nM | – | CC(=O)NCC1CCN(Cc2cc(Oc3ccc(N4CCN(CCC(N)=O)CC4)nc3)nc(-c3cc(Cl)cc(Cl)c3)c2)CC1 [Example 13, hydrochloride]
9.5 | 631 nM | – | CC(=O)NCC1CCN(Cc2cc(Oc3ccc(N4CCN(CCc5nnn[nH]5)CC4)nc3)nc(-c3cc(Cl)cc(Cl)c3)c2)CC1 [Example 14, N-((1-((2-((6-(4-(2-(1H-Tetrazol-5-yl)ethyl)piperazin-1-yl)pyridin-3-yl)oxy)-6-(3,5-dichlorophenyl)pyridin-4-yl)methyl)piperidin-4-yl)methyl)acetamide, 4 hydrochloride]
8.5 | 25.1 nM | – | CC(=O)NCC1CCN(Cc2cc(Oc3ccc(N4CCN(CC[S+](C)[O-])CC4)nc3)nc(-c3cc(Cl)cc(Cl)c3)c2)CC1 (stereo not drawn) [Example 15, N-((1-((2-(3,5-Dichlorophenyl)-6-((6-(4-(2-(methylsulfinyl)ethyl)piperazin-1-yl)pyridin-3-yl)oxy)pyridin-4-yl)methyl)piperidin-4-yl)methyl)acetamide, 4 hydrochloride]
– | 2 nM | 0.0316 nM | CNC(=O)NCC1CCN(Cc2cc(Oc3cnc(N4CCN(CCC(C)[S+](C)[O-])CC4)nc3)nc(-c3cc(Cl)cc(Cl)c3)c2)CC1 (stereo not drawn) [Example 17, 1-((1-((2-(3,5-dichlorophenyl)-6-((2-(4-(3-(methylsulfinyl)butyl)piperazin-1-yl)pyrimidin-5-yl)oxy)pyridin-4-yl)methyl)piperidin-4-yl)methyl)-3-methylurea]
– | – | 0.251 nM | COC(=O)NC(=O)CCN1CCN(c2ncc(Oc3cc(CN4CCC(CNC(C)=O)CC4)cc(-c4cc(Cl)cc(Cl)c4)n3)cn2)CC1 [Example 172, methyl (3-(4-(5-((4-((4-(acetamidomethyl)piperidin-1-yl)methyl)-6-(3,5-dichlorophenyl)pyridin-2-yl)oxy)pyrimidin-2-yl)piperazin-1-yl)propanoyl)carbamate]
9.2 | – | – | COC(=O)NC(=O)CCN1CCN(c2ncc(Oc3cc(CN4CCC(CNC(C)=O)CC4)cc(-c4cc(Cl)cc(Cl)c4)n3)cn2)CC1 [Example 175, methyl (3-(4-(5-((4-((4-(acetamidomethyl)piperidin-1-yl)methyl)-6-(3,5-dichlorophenyl)pyridin-2-yl)oxy)pyrimidin-2-yl)piperazin-1-yl)propanoyl)carbamate]
– | 6.31 nM | – | CNC(=O)NCC1CCN(Cc2cc(Oc3ccc(N4CCN(CCCS(N)(=O)=O)CC4)nc3)nc(-c3cc(Cl)cc(Cl)c3)c2)CC1 [Example 260, 3-(4-(5-((6-(3,5-dichlorophenyl)-4-((4-((3-methylureido)methyl)piperidin-1-yl)methyl)pyridin-2-yl)oxy)pyridin-2-yl)piperazin-1-yl)propane-1-sulfonamide]
– | 15.8 nM | – | CN1CCN(c2ncc(Oc3cc(CN4CC[C@@H]5[C@H](CC4)[C@H]5C(=O)O)cc(-c4cc(Cl)cc(Cl)c4)n3)cn2)CC1 [Example 321, (1R,7S,8r)-4-((2-(3,5-dichlorophenyl)-6-((2-(4-methylpiperazin-1-yl)pyrimidin-5-yl)oxy)pyridin-4-yl)methyl)-4-azabicyclo[5.1.0]octane-8-carboxylic acid]

Source: US11773078B2, “Furin inhibitors” (Glaxosmithkline Intellectual Property Development Limited, priority 2018, dated 2023)
